How the values were obtained:
[1] = test system: porcine brain endothelial cells (PBECs); settings: apical to basal, P.1 PBEC; line through passive compounds R^2=0.96
Procedure: Permeability assays were performed on cell monolayers with TEER >500 Ω cm^2. […] At t=5 min, the inserts were transferred to the next well containing donor buffer. This procedure was repeated for all inserts at t=15 min and t=30 min. At the end of the experiment, samples were taken from each insert and well to scintillation vials. OptiPhase HiSafe 2 scintillation liquid was added to each vial and radioactivity was counted using a Canberra Packard Tricarb 1900 TR Liquid Scintillation Analyser.
Cleared volume was calculated using the following equation and plotted as a function of time:(1) Clearedvolume(μl)=MR(dpm)/CD(dpm/μl) where is the MR=amount of radio-labelled compound in the receiver compartment, dpm=disintegrations per minute, CD=concentration of the compound in the donor compartment.
All dpm values were corrected for background dpm. The slope of the clearance curve was obtained by linear regression and represents the PS (i.e. permeability × surface area) product. Apparent permeability (Papp, cm/s) was calculated using the following equation:(2) Papp(cm/s)=PSproduct(cm^3/s)/surfaceareaoftheinsert(cm^2)
The apparent permeability Papp was calculated according to Eq. (2) and plotted against the calculated Log Poctanol as a measure of lipophilicity of the compound.

[2] = test system: cEND (an immortalised mouse brain endothelial cell line); set-up: method as in Förster et al. (2005); settings: cEND cells treated with hydrocortisone; ref Förster et al. (2005); cited from earlier work
[3] = test system: hCMEC/D3, immortalised human brain microvascular endothelial cells; set-up: method as in Förster et al., 2008; settings: hCMEC/D3 treated with hydrocortisone; ref Förster et al., 2008; cited from earlier work

Row | SMILES | Papp relative to the line of Papp vs. calculated Log Poctanol [1] | other results
1 | C[C@]12CCC(=O)C=C1CC[C@@H]1[C@@H]2[C@@H](O)C[C@@]2(C)[C@H]1CC[C@]2(O)C(=O)CO [hydrocortisone] |  | increase in TEER [2]: threefold; increase in TEER [3]: three-fold; increase in expression of occludin and claudin-5 [3]: over twofold
2 | C=CCN1CC[C@]23c4c5ccc(O)c4O[C@H]2C(=O)CC[C@@]3(O)[C@H]1C5 [naloxone] | linear function of calculated Log Poctanol | 
3 | CC(C)NCC(O)COc1cccc2ccccc12 (stereo not drawn) [propranolol] | linear function of calculated Log Poctanol | 
4 | CC[C@]1(O)C[C@@H]2CN(CCc3c([nH]c4ccccc34)[C@@](C(=O)OC)(c3cc4c(cc3OC)N(C)[C@H]3[C@@](O)(C(=O)OC)[C@H](OC(C)=O)[C@]5(CC)C=CCN6CC[C@]43[C@@H]65)C2)C1 [vinblastine] | clear outliers below the line | 

Continued, in another order:

Row | Papp relative to the line of Papp vs. calculated Log Poctanol [1] | SMILES | other results
5 | clear outliers above the line | CC(C)C[C@H](N)C(=O)O [Leucine, L-leucine] | 
6 | clear outliers above the line | Cn1c(=O)c2c(ncn2C)n(C)c1=O [caffeine] | 
7 | clear outliers below the line | N[C@@H](CCC(=O)O)C(=O)O [glutamate, L-glutamic acid] | 

From PMC3694297, “Establishment of a simplified in vitro porcine blood–brain barrier model with high transendothelial electrical resistance” (Brain Research, 2013)
